Earlier results as cited in US7981858B1, “Methods of using zinc containing compounds to improve ocular health” (Alcon, Inc., priority 2004, dated 2011).

How the values were obtained:
[1] = about 200 mg dosage of zinc per day
[2] = 80 mg of zinc, versus placebo

Q: For [Zn] [zinc], which tolerability [1] is on record?
A: The tolerability was “well tolerated”.

Q: And the side effects ([1]; anemia attributable to copper deficiency)?
A: Its side effects is “potential side effects such as anemia”.

Q: What about the “retarding macular degeneration changes” value [2] of the same compound?
A: The value was “significantly better than placebo”.
